The subject of assay [1] is Bacteroides. Briefly: Geometric mean MIC of anaerobic bacteria isolated from dogs and cats (in vitro). Type of assay: cell-based. The settings on record: N=37, isolated from dogs and cats, two in vitro studies, read-out: GMIC (geometric mean of the MIC values). The source says: (§1) Results of In Vitro Studies Geometric mean of the MIC values (Geometric Mean MIC; GMIC) of anaerobic bacteria isolated from dogs and cats compared to the standard metronidazole (μg/ml).

Assay [2] has as its system Fusobacterium. The assay is described as above. The settings on record: N=11, isolated from dogs and cats, two in vitro studies, read-out: GMIC (geometric mean of the MIC values). The format is cell-based.
From the text: as §1

Assay [3] deals with Peptostreptococcus. Described as above. The format is cell-based. The settings on record: N=4, isolated from dogs and cats, two in vitro studies, read-out: GMIC (geometric mean of the MIC values).
From the text: as §1

The test system of assay [4] is Porphyromonas. The assay is described as above. Type of assay: cell-based. The settings on record: N=8, isolated from dogs and cats, two in vitro studies, read-out: GMIC (geometric mean of the MIC values).
From the text: as §1

Assay [5] deals with Prevotella. The description is as above. The format is cell-based. The settings on record: N=25, isolated from dogs and cats, two in vitro studies, read-out: GMIC (geometric mean of the MIC values).
From the text: as §1

In assay [6] the test system is parodontitis. Nature of the assay: Clinical study for the indication parodontitis. Type of assay: in vivo. The settings on record: female beagles, 3 mg/kg once per day for seven days. Here is the method:
Clinical Study for the Indication Parodontitis
The study was carried out using 16 female beagles. Pradofloxacin was administered in a dose of 3 mg/kg once per day over a period of seven days.

Assay [7] relates to Actinobacillus actinomycetemcomitans. Briefly: In vitro MIC, parodontitis-causing bacteria. Type of assay: cell-based. To be noted: Aggregatibacter actinomycetemcomitans, two strains. The procedure:
(§2) In this study, in each case two strains of the parodontitis-causing bacteria were isolated, and their sensitivity to pradofloxacin was determined in vitro (MIC μg/ml).

The test system of assay [8] is Campylobacter rectus. Nature of the assay: In vitro MIC, parodontitis-causing bacteria. The format is cell-based. To be noted: two strains. The procedure:
as §2

For assay [9], the system named is Capnocytophaga ochracea. Briefly: In vitro MIC, parodontitis-causing bacteria. The format is cell-based. To be noted: two strains. Here is the method: as §2
Assay [10] has as its system Eikenella corrodens. Nature of the assay: In vitro MIC, parodontitis-causing bacteria. Type of assay: cell-based. The settings on record: two strains. Here is the method:
as §2

Assay [11] relates to Fusobacterium nucleatum. Briefly: In vitro MIC, parodontitis-causing bacteria. The settings on record: two strains. The format is cell-based. The procedure: as §2
Assay [12] has as its system Porphyromonas cangingivalis. Nature of the assay: In vitro MIC, parodontitis-causing bacteria. Type of assay: cell-based. To be noted: two strains. Here is the method:
as §2

Assay [13] has as its system Porphyromonas canons. Briefly: In vitro MIC, parodontitis-causing bacteria. The settings on record: two strains. Type of assay: cell-based. Here is the method: as §2
Assay [14] concerns Porphyromonas cansulci. Briefly: In vitro MIC, parodontitis-causing bacteria. The format is cell-based. The settings on record: Porphyromonas crevioricanis, two strains. Here is the method: as §2
Assay [15] concerns Porphyromonas gingivalis. Briefly: In vitro MIC, parodontitis-causing bacteria. The format is cell-based. To be noted: two strains. Here is the method: as §2
The test system of assay [16] is Prevotella intermedia. Nature of the assay: In vitro MIC, parodontitis-causing bacteria. Type of assay: cell-based. To be noted: two strains. The procedure: as §2

≈ marks a conversion by molar mass, not a printed value. Read-outs that look alike come from different tables or passages of the source.

Regarding `N#Cc1c(N2C[C@@H]3CCCN[C@@H]3C2)c(F)cc2c(=O)c(C(=O)O)cn(C3CC3)c12` [pradofloxacin, 8-cyano-1-cyclopropyl-7-((1S,6S)-2,8-diazabicyclo[4.3.0]nonan-8-yl)-6-fluoro-1,4-dihydro-4-oxo-3-quinolinecarboxylic acid], the MIC is 0.4 mg/L in assay [1]; 0.5 mg/L in [2]; 0.4 mg/L in assay [3]; 0.1 mg/L in assay [4]; 0.2 mg/L in [5]; less than 0.25 mg/L in [7]. The MIC in assay [8] was less than 0.25 mg/L; in [9], less than 0.25 mg/L; in assay [10], less than 0.25 mg/L; in assay [11], 1 mg/L (≈ 2.52 µM); in [11] (read-out: MIC), 0.5 mg/L (≈ 1.26 µM); in assay [12] it was 1 mg/L (≈ 2.52 µM). Also, the MIC in assay [12] (read-out: MIC) was 0.5 mg/L (≈ 1.26 µM); in [13], less than 0.25 mg/L; in assay [14], less than 0.25 mg/L; in assay [15], less than 0.25 mg/L; in [16] it was less than 0.25 mg/L. Further, the “total number of anaerobic bacteria in the periodontal pockets” value in assay [6] (after the treatment had ended, p<0.0001) is reported as “reduced significantly”; in assay [6] (three weeks after the treatment, day 28, p=0.0007), “reduced significantly”. For the same molecule, in assay [6] (p=0.02), the “periodontal pocket depth (loss of attachment)” value is given as “significant reduction”.

Regarding `Cc1ncc([N+](=O)[O-])n1CCO` [metronidazole, reference compound], the MIC in assay [1] was 0.7 mg/L; in [2], 1 mg/L; in [3], 0.8 mg/L; in assay [4], 0.3 mg/L; in assay [5], 0.4 mg/L.
